Assay results as given in ChEMBL document CHEMBL1128710, “Synthesis of cluster galactosides with high affinity for the hepatic asialoglycoprotein receptor” (J Med Chem, 1995).

Assay: Affinity towards Asialoglycoprotein receptor using in vitro competition assay for [125I]- ASOR binding to the parenchymal liver cells of rat

Compared with `COC(=O)CCCCC(=O)NCC(=O)NC(CO[C@@H]1O[C@H](CO)[C@H](O)[C@H](O)[C@H]1O)(CO[C@@H]1O[C@H](CO)[C@H](O)[C@H](O)[C@H]1O)CO[C@@H]1O[C@H](CO)[C@H](O)[C@H](O)[C@H]1O`, `COC(=O)CCCCC(=O)NCC(=O)NC(COCOCCO[C@@H]1O[C@H](CO)[C@H](O)[C@H](O)[C@H]1O)(COCOCCO[C@@H]1O[C@H](CO)[C@H](O)[C@H](O)[C@H]1O)COCOCCO[C@@H]1O[C@H](CO)[C@H](O)[C@H](O)[C@H]1O` is lower in Ki: > 390 µM for the first, 19 µM for the second.

Compared with `COC(=O)CCCCC(=O)NCC(=O)NC(COCOCCOCCOCCOCCO[C@H]1O[C@@H](CO)[C@@H](O)[C@@H](O)[C@@H]1O)(COCOCCOCCOCCOCCO[C@H]1O[C@@H](CO)[C@@H](O)[C@@H](O)[C@@H]1O)COCOCCOCCOCCOCCO[C@H]1O[C@@H](CO)[C@@H](O)[C@@H](O)[C@@H]1O`, `COC(=O)CCCCC(=O)NCC(=O)NC(COCOCCOCCO[C@@H]1O[C@H](CO)[C@H](O)[C@H](O)[C@H]1O)(COCOCCOCCO[C@@H]1O[C@H](CO)[C@H](O)[C@H](O)[C@H]1O)COCOCCOCCO[C@@H]1O[C@H](CO)[C@H](O)[C@H](O)[C@H]1O` is 55-fold higher in Ki: 0.2 µM for the first, 11 µM for the second.

Going from `CC(C)CCC[C@@H](C)[C@H]1CC[C@H]2[C@@H]3CC=C4C[C@@H](OC(=O)CCC(=O)NCC(=O)NC(CO[C@@H]5O[C@H](CO)[C@H](O)[C@H](O)[C@H]5O)(CO[C@@H]5O[C@H](CO)[C@H](O)[C@H](O)[C@H]5O)CO[C@@H]5O[C@H](CO)[C@H](O)[C@H](O)[C@H]5O)CC[C@]4(C)[C@H]3CC[C@]12C` to `COC(=O)CCCCC(=O)NCC(=O)NC(COCOCCCO[C@@H]1O[C@H](CO)[C@H](O)[C@H](O)[C@H]1O)(COCOCCCO[C@@H]1O[C@H](CO)[C@H](O)[C@H](O)[C@H]1O)COCOCCCO[C@@H]1O[C@H](CO)[C@H](O)[C@H](O)[C@H]1O`, the Ki falls from 14 µM to 1.2 µM (12-fold).

Compound `CC(=O)N[C@@H]1[C@@H](O)[C@@H](O)[C@@H](CO)O[C@H]1O` has a Ki of 870 µM.

Assay: Affinity towards Asialoglycoprotein receptor using in vitro competition assay for [125I]- ASOR binding to the parenchymal liver cells of rabbit
Parameters: species or system Oryctolagus cuniculus

With `COC(=O)CCCCC(=O)NCC(=O)NC(CO[C@@H]1O[C@H](CO)[C@H](O)[C@H](O)[C@H]1O)(CO[C@@H]1O[C@H](CO)[C@H](O)[C@H](O)[C@H]1O)CO[C@@H]1O[C@H](CO)[C@H](O)[C@H](O)[C@H]1O` the Ki was 150 µM.
